Results published in PubChem BioAssay AID434987 (Southern Research Specialized Biocontainment Screening …, 2010).
Activity calls are given as the source filed them. No rule for the calls is given here.

Tested on: M. tuberculosis H37Rv growth inhibition with meropenem
Assay: dose response, H37Rv, with and without meropenem (AID 434987);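 also: growth over 7 days at 37 °C before Alamar Blue read on day 9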
[1] = M. tuberculosis H37Rv growth inhibition, measured here: IC50 without meropenem
[2] = M. tuberculosis H37Rv growth inhibition, measured here: IC90 without meropenem
[3] = measured here: IC90 with meropenem

SMILES | IC50 | IC50 [1] [µM] | IC90 [2] [µM] | IC90 [3] [µM]
O=C(NNC(=O)c1ccc(Oc2cc(Cl)cc(Cl)c2)o1)c1ccccc1 | > 100 µM (inactive) | > 100 | > 100 | > 100
O=C(O)C1CC(=O)N(c2ccc(OCc3ccccc3Cl)cc2)C1 (stereo not given) | 14.2 µM | 41.6 | > 100 | > 100
Cc1cc(C)c(N=Cc2c(O)n(-c3nccs3)c(=O)c3ccccc23)c(C)c1 | > 100 µM (inactive) | > 100 | > 100 | > 100
Cc1ccc(O)c(-c2cc(-c3ccccc3F)[nH]n2)c1 | > 100 µM (inactive) | > 100 | > 100 | > 100
CCCCNC(=O)c1onc(CSc2ccccc2CC)c1C(=O)O | 22.3 µM (inactive) | 44.7 | > 100 | 23.7
COc1ccc(-c2csc(-c3cccs3)n2)c(OC)c1 | 67.6 µM (inactive) | 68.2 | > 100 | > 100
CC1CCCC(NC(=O)COC(=O)c2cccc(NS(=O)(=O)/C=C/c3ccccc3)c2)C1C (stereo not given) | > 100 µM (inactive) | > 100 | > 100 | > 100
COC(=O)c1ccc(-c2cc(C(=O)O)c3cc4c(cc3n2)OCCO4)cc1 | > 100 µM (inactive) | > 100 | > 100 | > 100
O=C(COC(=O)c1ccc([N+](=O)[O-])s1)NCc1ccc(F)cc1 | 37.9 µM (inactive) | 56.6 | > 100 | > 100
O=C(Nc1ccccc1N1CCCC1)c1ccc2c(c1)OCO2 | 72.3 µM (inactive) | 87.3 | > 100 | > 100
CC(C)CCN1CC(O)=C(c2nc3ccccc3[nH]2)C1=N | 6.68 µM | 73 | > 100 | > 100
S=C(NN=C1C2CC3CC(C2)CC1C3)Nc1ccccc1 | 45.7 µM (inactive) | 48.7 | 54.7 | 51.4
Cc1cccc(NC(=O)c2cc3ccccc3c(=O)o2)n1 | 37.9 µM | > 100 | > 100 | > 100
O=C(Nc1ccc(Br)cc1)c1cccnc1N1CCCCC1 | > 100 µM (inactive) | > 100 | > 100 | > 100
CCC(=O)NC(=S)Nc1ccc(NC(=O)c2ccccc2[N+](=O)[O-])cc1 | > 100 µM (inactive) | > 100 | > 100 | > 100
C[C@H]1C=CC(=O)O[C@H]1c1ccccc1 | 21 µM (inactive) | 43.7 | 60.6 | 49.5
COc1cccc(NS(=O)(=O)c2ccc3[nH]cc(C(=O)NCCC(C)C)c(=O)c3c2)c1 | > 100 µM (inactive) | > 100 | > 100 | > 100
CC(=O)NC(c1cc(Cl)c2cccnc2c1O)C1CC1 (stereo not given) | 23.1 µM | 73.3 | > 100 | > 100
O=C(CN(Cc1ccco1)C(=O)c1cccc(Cl)c1)Nc1c(Cl)cc(Cl)cc1Cl | 48.3 µM (inactive) | > 100 | > 100 | > 100
CCc1cc2c(=O)nc3n(c2s1)Cc1ccccc1/C3=C(/O)c1ccc(F)cc1 | > 100 µM (inactive) | > 100 | > 100 | > 100
O=C(N/N=C/C(Br)=C\c1ccccc1)c1ccc2nc[nH]c2c1 | 30.4 µM | > 100 | > 100 | > 100
CCOC(=O)c1c(C)[nH]c(C(=O)COC(=O)CCC2CCCC2)c1C | > 100 µM (inactive) | > 100 | > 100 | > 100
CSc1nnc(C)c(/C=C/Nc2ccc(Cl)cc2)n1 | 94 µM (inactive) | 94.5 | > 100 | > 100
CCOC(=O)Cn1c(C)cc(=O)c2cccc(C)c21 | 26.4 µM | > 100 | > 100 | > 100
CSc1ccc(-c2nnn(CC(=O)NCc3ccccc3)n2)cc1 | 15.8 µM | > 100 | > 100 | > 100
Nc1ccc(N=Nc2ccccc2O)c(N)c1 | 6.58 µM | 33.8 | > 100 | 34
CCOC(=O)c1ccc(C(=O)NNC(=O)C2CC=CCC2)cc1 (stereo not given) | 8.57 µM (inactive) | 20.9 | 31.9 | 40
Cc1ccc2c(c1)CCCN2C(=O)c1cc2ccccc2oc1=O | 22.9 µM | > 100 | > 100 | > 25
COc1ccc(/C(O)=C/C(=O)C(=O)NNC(=O)C(O)(c2ccccc2)c2ccccc2)cc1 | > 100 µM (inactive) | > 100 | > 100 | > 100
COc1ccc(C(=O)Nc2ccc3nc(N4CCCCC4)cc(C)c3c2)c(OC)c1 | 5.19 µM | > 100 | > 100 | > 100
